Marks after values point to notes of the source that are not given here.
Tests used:
C3H10T1/2 cells [1] = assay: C3H10T1/2 cell attachment to a variety of coated substrates; type: cell-based, murine
Procedure: (§1) The cells were examined after plating using an inverted, phase-contrast microscope. At selected time points up to 4 days after initial seeding, the cells were rinsed three times in saline and fixed in buffered 10% formalin or 35% ethanol. In some cases, the cells were stained in situ with a 0.01 % aqueous solution of crystal violet. The amount of attachment was scored visually or quantitated. To establish the relative number of cells bound, crystal violet stained cells were dissolved in a solution of 70% ethanol containing 0.1% sodium dodecyl sulfate and 0.38 M Tris and the absorbance monitored at 610 nm, using the methods of Scragg and Ferreira (Anal Biochem 198:80-5, 1991) and Grando et al. (Skin Pharmacol 6:135-47, 1993).
The general applicability of silyl-heparin-fibronectin complex was evaluated by applying this coating using the methods of Examples 4 and 5 to a variety of surfaces, including polystyrene, polylactide:polyglycolide, polycaprolactone, polyurethane and stainless steel. […] They did, however, bind moderately well to polylactide:polyglycolide and to polycaprolactone, and very well to stainless steel.

[2] = system: C3H10T1/2 (murine fibroblasts); assay: Cell attachment, spreading and growth on coated low-attachment polystyrene wells; type: cell-based
Description: (§2) Several cell types were used, including GS-9L cells (rat gliosarcoma), C3H10T1/2 (murine fibroblasts), Jurkat (human T cell), bovine aorta endothelial (BAE) cells and rat lymphocytes. GS-9L and C3H10T1/2 cells were maintained in log phase growth and detached from cultureware using Versene and collected by centrifugation. Jurkat cells grew as single cell suspensions and were collected by centrifugation. Rat lymphocytes were collected from heparinized blood by density gradient isolation over Ficoll-Hypaque® media. The collected cells were rinsed once by low speed centrifugation and suspended in either serum-free Dulbecco's Modified Eagles Medium (DMEM) containing pyruvate or RPMI 1640 containing 10% fetal bovine serum (FBS) supplemented with pyruvate. Aliquots of 10^4 cells in 100 μL were used in subsequent adhesion studies.
as §1
(§3) The cells of Example 7 were added to untreated polystyrene wells, wells coated with silyl-heparin as in Example 4, with silyl-heparin-fibronectin as in Example 5, and with only fibronectin by incubation as described in Example 5. […] Cells were seeded at a concentration of 10^4 cells/well in serum-containing medium.
The cells grew to confluency by 4 days. […] No effort was made to grow the cells in a defined- or serum-low medium known to support growth. […]

C3H10T1/2 cells [3] = assay: Attachment of C3H10T1/2 cells to silyl-heparin coated wells complexed with adhesive molecules, crystal violet; type: cell-based, murine; design: unit not given here; conditions: after two hours; hydrogel-polystyrene 96-well plates coated with silyl-heparin complexes and the listed adhesive molecule; proteins 100 μg/ml, serum undiluted
Procedure: Attachment of C3H10T1/2 cells after two hours to wells of 96-well, hydrogel-polystyrene plates coated with silyl-heparin complexes and the listed adhesive molecule was detected by staining with crystal violet. All proteins were used at a concentration of 100 μg/ml in buffered saline. Serum was used without dilution. Statistical significance was assessed relative to the values from buffered saline using Student's t-test, with * indicating p<0.05, ** indicating p<0.01 and *** indicating p<0.001.

[4] = system: Bovine aorta endothelial cells; assay: Capillary tube formation on coated low attachment wells; type: cell-based; conditions: 5×10^3 cells per well; DMEM containing 10% FBS; 4 days; phase contrast microscopy
Procedure: Low attachment 96 well plates were coated with saline, silyl-heparin complex, silyl-heparin-fibrinogen complex or silyl-heparin-bFGF complex. Bovine aorta endothelial cells (5×10^3 cells) were seeded into each well in DMEM containing 10% FBS. The cells were allowed to grow for 4 days and the cultures examined by phase contrast microscopy.

bFGF = target: T1, bFGF (Homo sapiens, UniProt P09038); assay: Effect of adhesive molecules complexed to silyl-heparin on subsequent bFGF binding; conditions: adhesive molecule complexed to silyl-heparin at 100 μg/mL before bFGF
T1 construct: purchased Sigma Chemical Co
Procedure: Wells of 96 well polystyrene microtiter plates, with a well surface area of 0.32 cm^2, were coated with 30 μl of silyl heparin for 15 minutes at 37° C. After rinsing and air-drying, bFGF (Sigma Chemical Co.) in PBS/BSA was added in 150 μL aliquots in doubling dilutions. The plate was incubated at 37° C. for 1 hour and rinsed 5 times in PBS. An aliquot 150 μl of PBS/BSA containing 1:500 rabbit anti-FGF antibodies were added, incubated for 1 hour and rinsed. In some cases an irrelevant rabbit antibody was used at a similar concentration (rabbit anti-TGF-receptor II, Santa Cruz Biotechnology). An aliquot of PBS/BSA containing 1:500 HRPO-conjugated donkey anti-rabbit IgG added, and after incubation and rinsing ABTS-chromogen added. All antibody solutions were filtered through 0.2 micron filters prior to use. The absorbance was monitored at 405 nm. […] When anti-TGF-II (irrelevant antibody directed against the transforming growth factor receptor) was used instead of anti-FGF and at the same anti-dilutions, no bFGF was detected. When TGF-β, at a concentration of 40 ng was used as the growth factor molecule, no activity was detected with anti-bFGF antibodies.
Murine type IV collagen, human fibrinogen and bovine fibronectin isolated from plasma were bound to silyl-heparin complexes bound to wells of polystyrene microtiter plates, at a concentration of 100 μg/mL in PBS/BSA. […]

[5] = system: GS-9L cells (rat gliosarcoma); assay: Cell attachment, spreading and growth on coated low-attachment polystyrene wells; type: cell-based; conditions: 10^4 cells/well, serum-containing medium
Description: as §2, §1, §3
The cells grew to confluency by 4 days. […] No effort was made to grow the cells in a defined- or serum-low medium known to support growth.

C3H10T1/2 cells [6] = assay: Cross-titration of fibronectin and silyl-heparin needed to support cell attachment; type: cell-based, murine; conditions: fibronectin titrated from 4 μg/well on silyl-heparin applied at 30 μg/well; 24 hours; crystal violet, 610 nm
Procedure: The optimal amount of fibronectin and silyl-heparin to support attachment of C3H10T1/2 cells was determined by cross-titration, as shown on FIG. 1. […] The fall-off for the silyl-heparin was more gradual. The curve of the relative amount of silyl-heparin on the substrate following serial dilution generally followed the cell attachment curve.
In FIG. 1, fibronectin (Δ—Δ) or silyl-heparin (•—•) were titrated to determine the quantity needed to support attachment of C3H10T1/2 cells. All dilutions were performed in quadruplicate in wells of 96-well plates of low-attachment polystyrene. For titration of fibronectin, silyl-heparin was applied at 30 μg/well in 70% ethanol as in Example 4. After rinsing, fibronectin was applied in doubling dilutions of phosphate buffered saline starting from 4 μg/well. For titration of silyl-heparin, silyl-heparin was applied in doubling dilutions in 70% ethanol starting from silyl-heparin concentrations of 30 μg/well. Fibronectin was then applied in saline at 4 μg/well. Cells were at a concentration of 10^4 cells/well in growth medium. For both experiments, the cells were allowed 24 hours to attach and then were rinsed and fixed in buffered formalin. The cells were stained for 5 minutes with 0.01% aqueous crystal violet and the absorbance at 610 nm determined.

[7] = affinity binding of fibronectin to heparin; cited from earlier work

T1 sequence (P09038 143-288, species assumed): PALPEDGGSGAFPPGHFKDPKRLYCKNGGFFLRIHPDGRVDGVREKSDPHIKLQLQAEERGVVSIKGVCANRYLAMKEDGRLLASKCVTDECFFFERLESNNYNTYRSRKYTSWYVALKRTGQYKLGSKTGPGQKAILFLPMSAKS

With heparin [reference compound] the “effect of coating or treatment on C3H10T1/2 cell attachment” value (C3H10T1/2 cells [1]; regardless of the substrate) was “did not inhibit attachment” and the “effect of heparin added to the medium on attachment or growth of cells” value ([2]; up to 10 U of heparin, C3H10T1/2 plated onto silyl-heparin-fibronectin coated plates) was “did not inhibit the attachment or growth”.
For poly-l-ornithine [reference compound], the “attachment of C3H10T1/2 cells by crystal violet staining, Average ± S.E.” value (“attachment of C3H10T1/2 cells … Average ± S.E.” below) (C3H10T1/2 cells [3]) was 0.92 ± 0.28*.
With fibrinogen the “attachment of C3H10T1/2 cells … Average ± S.E.” value (C3H10T1/2 cells [3]) was 1.63 ± 0.17**, the capillary tube formation [4] was “Tubes did not form” and the “effect on binding of bFGF to the silyl-heparin-adhesive molecule complex” value (bFGF) was “less significant decrease in binding”.
For “fibronectin: bovine plasma fibronectin, adhesive molecule”, the “attachment of C3H10T1/2 cells … Average ± S.E.” value (C3H10T1/2 cells [3]) was 1.00 ± 0.10**, the “CELL ATTACHMENT” value [5] was “isolated C3H10T1/2 cells and isolated GS-9L cells were found attached” and the “EC50 to support attachment of C3H10T1/2 cells” value (C3H10T1/2 cells [6]) was “approximately 0.5 μg/well”. The “effect on binding of bFGF to the silyl-heparin-adhesive molecule complex” value (bFGF) was “significantly decreased the binding of bFGF”, the “C3H10T1/2 CELL ATTACHMENT” value (C3H10T1/2 cells [1]; surface: Polyactide:polyglycolide) was “improve the attachment of cells” and the “C3H10T1/2 CELL ATTACHMENT” value (C3H10T1/2 cells [1]; surface: Polystyrene) was “did not significantly support cell attachment”. For the same substance, the “C3H10T1/2 CELL ATTACHMENT” value (C3H10T1/2 cells [1]; surface: Polyurethane) was “improve the attachment of cells”, the “CELL ATTACHMENT” value ([2]; C3H10T1/2, coated low-attachment polystyrene wells, 10^4 cells/well, serum-containing medium) was “isolated C3H10T1/2 cells and isolated GS-9L cells were found attached” and the affinity constant [7] was “approximately 10^8 M/L”.
In the case of gelatin, the “attachment of C3H10T1/2 cells … Average ± S.E.” value (C3H10T1/2 cells [3]) is reported as 0.15 ± 0.05.
In the case of “bFGF: basic fibroblast growth factor (Sigma Chemical Co.)”, the capillary tube formation [4] is reported as “Tubes did not form”.
For “transferrin: protein used at 100 μg/ml on silyl-heparin coated wells”, the “attachment of C3H10T1/2 cells … Average ± S.E.” value (C3H10T1/2 cells [3]) was 0.15 ± 0.03.
With poly-l-lysine [reference compound] the “attachment of C3H10T1/2 cells … Average ± S.E.” value (C3H10T1/2 cells [3]) was 1.18 ± 0.06***.
